Test results taken from patent US12077503B2, “Substituted cyclic amides and their use as herbicides” (FMC CORPORATION, priority 2015, dated 2024).

Legend:
Type in all cases: in vivo
[1] = tested on: Kochia (Kochia scoparia); test: Test A preemergence; conditions: Bassia scoparia, pre-emergence, 240 h, preemergence, 0 to 100 scale where 0 is no effect and 100 is complete control, read-out: Kochia plant response rating
Method in brief: (§1)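 Compounds were formulated in a non-phytotoxic solvent mixture with surfactant and applied as a preemergence directed soil spray after seeding, or sprayed postemergence over plants 2 to 10 cm tall at the one- to two-leaf stage. Evaluation after about 10 d compared treated with untreated controls, using a scale from 0 (no effect) to 100 (complete control).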

[2] = tested on: Galium (catchweed bedstraw, Galium aparine); test: Test A postemergence; conditions: Galium, post-emergence, 240 h, Postemergence
Method in brief: as §1

[3] = tested on: Kochia (Kochia scoparia); test: Test A postemergence; conditions: Bassia scoparia, post-emergence, 240 h, Postemergence
Method in brief: as §1

[4] = tested on: barnyardgrass (Echinochloa crus-galli); test: Test A postemergence; conditions: Echinochloa crus-galli, post-emergence, 240 h, Postemergence
Method in brief: as §1

[5] = tested on: blackgrass (Alopecurus myosuroides); test: Test A postemergence; conditions: Alopecurus myosuroides, post-emergence, 240 h, Postemergence
Method in brief: as §1

[6] = tested on: corn (Zea mays); test: Test A postemergence; conditions: Zea mays, post-emergence, 240 h, Postemergence
Method in brief: as §1

[7] = tested on: giant foxtail (Setaria faberii); test: Test A postemergence; conditions: Setaria faberi, post-emergence, 240 h, Postemergence
Method in brief: as §1

[8] = tested on: pigweed (Amaranthus retroflexus); test: Test A postemergence; conditions: Amaranthus retroflexus, post-emergence, 240 h, Postemergence
Method in brief: as §1

[9] = tested on: ragweed (common ragweed, Ambrosia elatior); test: Test A postemergence; conditions: Ambrosia artemisiifolia, post-emergence, 240 h, Postemergence
Method in brief: as §1

[10] = tested on: ryegrass, Italian (Italian ryegrass, Lolium multiflorum); test: Test A postemergence; conditions: Lolium multiflorum, post-emergence, 240 h, Postemergence
Method in brief: as §1

[11] = tested on: wheat (Triticum aestivum); test: Test A postemergence; conditions: Triticum aestivum, post-emergence, 240 h, Postemergence
Method in brief: as §1

[12] = tested on: barnyardgrass (Echinochloa crus-galli); test: Test B flooded paddy test; conditions: Echinochloa crus-galli, 250 g ai/ha, Flood; 0 to 100 scale where 0 is no effect and 100 is complete control; read-out: Barnyardgrass plant response rating
Method in brief: (§2)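 Flooding to 3 cm over soil accompanied treatment, which consisted of adding compound to the standing water around 2-leaf plants; depth was then maintained. Visual assessment versus controls followed at 13 to 15 d (scale 0–100, 0 meaning no effect).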

[13] = tested on: ducksalad (Heteranthera limosa); test: Test B flooded paddy test; conditions: Heteranthera limosa, 250 g ai/ha, Flood; 0 to 100 scale where 0 is no effect and 100 is complete control; read-out: Ducksalad plant response rating
Method in brief: as §2

[14] = tested on: rice (Oryra sativa); test: Test B flooded paddy test; conditions: Oryza sativa, 250 g ai/ha, Flood; 0 to 100 scale where 0 is no effect and 100 is complete control; read-out: Rice plant response rating
Method in brief: as §2

[15] = tested on: sedge, umbrella (small-flower umbrella sedge, Cyperus difformis); test: Test B flooded paddy test; conditions: Cyperus difformis, 250 g ai/ha, Flood; 0 to 100 scale where 0 is no effect and 100 is complete control; read-out: Sedge, Umbrella plant response rating
Method in brief: as §2

O=C1NC[C@H](c2nccc(C(F)(F)F)n2)[C@H]1C(=O)Nc1ccccc1F [Compound 1304]
0%: pest or weed control at 125 g/ha ([1]; 125 g ai/ha, visual injury rating, approximately 10 d) | pest or weed control at 500 g/ha ([1]; 500 g ai/ha) | pest or weed control at 125 g/ha ([2]; 125 g ai/ha, visual rating about 10 d after treatment, read-out: Galium plant response rating (0 to 100 scale)) | pest or weed control at 500 g/ha ([2]; 500 g ai/ha, visual injury, 0 to 100 scale (0 no effect, 100 complete control), approx. 10 d, read-out: Plant response rating, Galium) | pest or weed control at 125 g/ha ([3]; 125 g ai/ha, visual rating about 10 d after treatment, read-out: Kochia plant response rating (0 to 100 scale)) | pest or weed control at 500 g/ha ([3]; 500 g ai/ha, visual injury, 0 to 100 scale (0 no effect, 100 complete control), approx. 10 d, read-out: Plant response rating, Kochia) | pest or weed control at 125 g/ha ([4]; 125 g ai/ha, visual rating about 10 d after treatment, read-out: Barnyardgrass plant response rating (0 to 100 scale, 0 no effect, 100 complete control)) | pest or weed control at 500 g/ha ([4]; 500 g ai/ha, visual injury, 0 to 100 scale (0 no effect, 100 complete control), approx. 10 d, read-out: Plant response rating, Barnyardgrass) | pest or weed control at 125 g/ha ([5]; 125 g ai/ha, visual rating about 10 d after treatment, read-out: Blackgrass plant response rating (0 to 100 scale)) | pest or weed control at 500 g/ha ([5]; 500 g ai/ha, visual injury, 0 to 100 scale (0 no effect, 100 complete control), approx. 10 d, read-out: Plant response rating, Blackgrass) | plant injury at 125 g/ha ([6]; 125 g ai/ha, visual rating about 10 d after treatment, read-out: Corn plant response rating (0 to 100 scale)) | Corn plant response rating (crop injury, 0 = no effect, 100 = complete kill) at 500 g/ha ([6]; 500 g ai/ha, visual injury, 0 to 100 scale (0 no effect, 100 complete control), approx. 10 d) | pest or weed control at 125 g/ha ([7]; 125 g ai/ha, visual rating about 10 d after treatment, read-out: Foxtail, Giant plant response rating (0 to 100 scale)) | pest or weed control at 500 g/ha ([7]; 500 g ai/ha, visual injury, 0 to 100 scale (0 no effect, 100 complete control), approx. 10 d, read-out: Plant response rating, Foxtail, Giant) | pest or weed control at 125 g/ha ([8]; 125 g ai/ha, visual rating about 10 d after treatment, read-out: Pigweed plant response rating (0 to 100 scale)) | pest or weed control at 500 g/ha ([8]; 500 g ai/ha, visual injury, 0 to 100 scale (0 no effect, 100 complete control), approx. 10 d, read-out: Plant response rating, Pigweed) | pest or weed control at 125 g/ha ([9]; 125 g ai/ha, visual rating about 10 d after treatment, read-out: Ragweed plant response rating (0 to 100 scale)) | pest or weed control at 500 g/ha ([9]; 500 g ai/ha, visual injury, 0 to 100 scale (0 no effect, 100 complete control), approx. 10 d, read-out: Plant response rating, Ragweed) | pest or weed control at 125 g/ha ([10]; 125 g ai/ha, visual rating about 10 d after treatment, read-out: Ryegrass, Italian plant response rating (0 to 100 scale)) | pest or weed control at 500 g/ha ([10]; 500 g ai/ha, visual injury, 0 to 100 scale (0 no effect, 100 complete control), approx. 10 d, read-out: Plant response rating, Ryegrass, Italian) | plant injury at 125 g/ha ([11]; 125 g ai/ha, visual rating about 10 d after treatment, read-out: Wheat plant response rating (0 to 100 scale)) | plant injury at 500 g/ha ([11]; 500 g ai/ha, visual injury, 0 to 100 scale (0 no effect, 100 complete control), approx. 10 d, read-out: Plant response rating, Wheat) | pest or weed control at 250 g/ha [12] | pest or weed control at 250 g/ha [13] | pest or weed control at 250 g/ha [14] | pest or weed control at 250 g/ha [15]
